Entries after “also recorded” stand apart in the source; their conditions may differ. Like-named read-outs stand apart in the source and are kept apart here.
Columns and labels:
[1] = molecular target: T1, purified human GBA1 (Homo sapiens, UniProt P04062); assay: GBA1 enzymatic cell-free assay, turnover of 4MUG; assay type: biochemical
T1 construct: purchased R&D Systems 7410-GH-10; host or cells: alternatively made in house: baculovirus (pFastBac-1), expressed in SF-9 or SF-21 cells, purified from conditioned media
T1 sequence (P04062 40-536): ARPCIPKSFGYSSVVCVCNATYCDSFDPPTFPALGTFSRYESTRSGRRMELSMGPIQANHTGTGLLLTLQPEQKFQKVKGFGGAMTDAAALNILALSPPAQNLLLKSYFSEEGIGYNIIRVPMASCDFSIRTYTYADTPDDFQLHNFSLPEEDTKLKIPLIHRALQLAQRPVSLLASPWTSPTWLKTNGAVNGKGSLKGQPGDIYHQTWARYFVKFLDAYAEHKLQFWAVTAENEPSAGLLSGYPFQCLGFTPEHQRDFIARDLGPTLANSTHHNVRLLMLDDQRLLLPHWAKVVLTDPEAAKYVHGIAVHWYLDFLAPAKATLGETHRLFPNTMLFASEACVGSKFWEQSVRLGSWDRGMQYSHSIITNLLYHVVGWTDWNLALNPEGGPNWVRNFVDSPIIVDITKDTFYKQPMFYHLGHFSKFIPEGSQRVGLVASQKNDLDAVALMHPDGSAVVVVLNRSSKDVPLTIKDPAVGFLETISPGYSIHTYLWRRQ
Procedure: After incubation, 100 μl of assay buffer was added to the plate. The assay buffer was composed of 0.1 M citric acid and 0.2 M sodium phosphate dibasic adjusted to pH = 5.4 unless stated otherwise (McIlvaine Buffer). […] For IC50 and EC50 experiments using compounds an assay buffer of pH 5.4 was used.
The substrate, 4-methylumbelliferyl β-D-glucopyranoside (4MUG, Sigma, M3633) was then added to the plate to a final concentration of 1.7 mM (25 μl). 4MUG was freshly solubilized in water at 37°C prior to each experiment. The recombinant protein, compound, assay buffer, and substrate were incubated at 37°C for 30 minutes.
The specific activity was calculated off the 4MU standard curve by converting the relative fluorescence units (RFUs) to the concentration of the fluorescent product (GraphPad Prism 5.1). This interpolated value was then used to calculate the specific activity of the recombinant protein which was expressed as nmol/hr/ng protein for recombinant protein and nmol/hr/mg for tissue lysates (GBA1 tissue assay). The standard curve was always diluted in the same assay buffer as the samples, including the same pH. For experiments testing activity of GBA1 at different pH, a standard curve for each pH condition was used to calculate specific activity. When testing different pH conditions, buffer solutions were adjusted to obtain the desired pH using the McIlvaine’s Buffer recipe, and the pH of the buffer was verified. All assay buffers used in the pH experiments contained sodium taurocholate to a final concentration of 3.1 mM.
In experiments directly comparing enzymatic activities of GBA1, GBA2 and GBA3 (S1 Fig., S2 Fig. c, d) the following conditions were used. […] A 10-fold intermediate solution of compound serial dilution was prepared in an assay buffer; half log dilutions were used. […] 2 mM solution of 4MUG was prepared in an assay buffer. To start the reaction, 4.5 μl/well of this solution was added to the enzyme plate and was incubated for 30 minutes at 37°C. To stop the reaction, a 1M glycine solution, adjusted to pH = 10 using 1M NaOH was used. […] To test the effect of sodium taurocholate (Sigma, T4009), the assay was performed using the same procedure described in this paragraph. The assay buffer contained either 0mM (same as above), 3 mM, 7 mM or 20 mM Sodium Taurocholate.

[2] = molecular target: T2, recombinant GBA2 (Homo sapiens, UniProt Q9HCG7); assay: cell-free 4MUG assay with recombinant GBA2; assay type: biochemical; conditions: dose response, within the concentrations tested
T2 construct: purchased Abcam ab163631
T2 sequence (Q9HCG7 1-927): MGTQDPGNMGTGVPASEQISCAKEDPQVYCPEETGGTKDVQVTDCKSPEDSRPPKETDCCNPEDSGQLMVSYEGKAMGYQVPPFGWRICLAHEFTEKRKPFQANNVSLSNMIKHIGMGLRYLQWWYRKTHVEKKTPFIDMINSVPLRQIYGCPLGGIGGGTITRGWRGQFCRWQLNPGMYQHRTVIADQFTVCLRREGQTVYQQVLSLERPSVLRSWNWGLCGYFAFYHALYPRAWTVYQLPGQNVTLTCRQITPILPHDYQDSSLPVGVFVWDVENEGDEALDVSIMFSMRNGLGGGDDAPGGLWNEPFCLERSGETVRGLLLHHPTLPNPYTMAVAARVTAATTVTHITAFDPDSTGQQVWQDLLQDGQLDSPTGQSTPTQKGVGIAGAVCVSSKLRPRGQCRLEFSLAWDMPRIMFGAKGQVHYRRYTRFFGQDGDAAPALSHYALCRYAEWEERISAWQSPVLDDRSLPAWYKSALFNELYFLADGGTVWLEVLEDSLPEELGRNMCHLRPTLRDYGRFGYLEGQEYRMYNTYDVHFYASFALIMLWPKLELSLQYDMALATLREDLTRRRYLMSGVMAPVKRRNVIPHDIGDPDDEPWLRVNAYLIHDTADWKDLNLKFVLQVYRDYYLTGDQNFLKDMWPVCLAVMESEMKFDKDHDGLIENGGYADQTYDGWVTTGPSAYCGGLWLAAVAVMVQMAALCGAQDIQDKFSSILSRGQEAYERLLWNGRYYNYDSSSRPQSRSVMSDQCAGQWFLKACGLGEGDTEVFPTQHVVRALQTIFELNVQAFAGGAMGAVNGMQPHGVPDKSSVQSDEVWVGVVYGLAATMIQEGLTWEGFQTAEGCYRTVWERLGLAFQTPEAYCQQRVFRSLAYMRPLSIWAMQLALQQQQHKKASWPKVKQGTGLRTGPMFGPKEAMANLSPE
Procedure: The assay buffer consisted of 44 mM Citric Acid, 111 mM Na2HPO4, pH 5.5, 0.1% Triton X-100. […] A 10-fold intermediate solution of compound serial dilution was prepared in an assay buffer; half log dilutions were used. In a black 384-well plate (ThermoFisher, 267461) we added 5 μl of enzyme solution and 1 μl of compounds when appropriate, and incubated for 30 minutes at room temperature. 2 mM solution of 4MUG was prepared in an assay buffer. To start the reaction, 4.5 μl/well of this solution was added to the enzyme plate and was incubated for 30 minutes at 37°C. To stop the reaction, a 1M glycine solution, adjusted to pH = 10 using 1M NaOH was used. The fluorescent signal was detected using the Envision Multilabel Plate Reader (Perkin Elmer) at excitation = 355nm and emission = 450nm.

Row | inhibition of GBA1 activity ([1]; 1 mM) | inhibition at 1 µM ([1]; read-out: inhibition of GBA1 activity) | inhibition at 1 µM ([1]; with sodium taurocholate, read-out: GBA1 % inhibition + NaTc) | inhibition at 1 µM ([1]; without sodium taurocholate, read-out: GBA1 % inhibition - NaTc) | effect on activity of recombinant GBA2 ([2]; listed as isofagomine) | Structure (SMILES) | effect on activity of recombinant GBA2 [2]
1 | more than 90% | – | – | – | – | O[C@H]1[C@H](O)[C@@H](O)[C@@H]2O[C@@H]2[C@@H]1O [CBE] | did not inhibit; also recorded: does not alter activity
2 | – | > 90% | 95.9 ± 3.2% | 92.1 ± 2.3% | Minimal effect | OC[C@H]1CNC[C@@H](O)[C@@H]1O [Isofagomine, isofagomine] | almost no effect
